Test results taken from patent US9801973B1, “Peptide having zirconia-binding capacity” (SEOUL NATIONAL UNIVERSITY R&DB FOUNDATION, priority 2015, dated 2017).

What was measured:
[1] = binding assay using an avidin-biotin complex (binding affinity of zirconia-binding peptide); settings: biotin-labeled peptide, 100 nM to 1 μM, room temperature 15 hours
Source text: (§1) In order to examine the binding affinities of the peptides synthesized in Example 1 and Comparative Examples 1 and 2, the peptides were labeled with biotin. Each of the synthesized peptide domains was biotinylated using EZ-Link Sulfo-NHS-Biotin (Pierce Biotechnology, USA) according to the manufacturer's instruction, and unbound byproducts were removed by ultrafiltration that is a membrane separation method based on a pressure difference. The molecular weights of the synthesized products were measured by mass spectrometry. The synthesized products were analyzed and purified by reverse phase liquid chromatography. For analysis, a C18 column having a diameter of 4.6 mm was used, and 0.1% TFA/H2O and 0.092% TFA/acetonitrile were flushed onto the column at a rate of 1 ml/min with a gradient of 0-60% for 30 minutes. The wavelength of the UV detector used was 220 nm. For purification, a column having a diameter of 2.2 cm was used, and a flow rate of 20 ml/min and the solvent and detection wavelength as described above were used. Only the biotin-labeled peptide fraction was collected, and concentrated using a rotary evaporator to remove the solvent, followed by freeze-drying.
To measure the binding affinity of the zirconia-binding peptide, a binding assay using an avidin-biotin complex was performed. Specifically, one zirconia disc was placed in each well of a 12-well polystyrene plate, and then blocked with a blocking buffer (0.1 M NaHCO3 (pH 8.6), 5 mg/ml BSA, 0.02% NaN3 (optional), filter sterilize) for at least one hour. Next, the blocking buffer was discarded, and each zirconia disc was strongly washed six times or more with a washing buffer (TBS+0.1% [v/v] Tween-20), after which 200 μl of each of the zirconia-binding peptide Zr-BP (SEQ ID NO: 1) of Example 1 and the peptides Zr-BPC (SEQ ID NO: 2), PL1 (SEQ ID NO: 3) and PL2 (SEQ ID NO: 4) of Comparative Examples 1 and 2, which were biotin-labeled, synthesized, separated and purified in Example 3-1, was dispensed to the surface of each zirconia disc at a concentration ranging from 100 nM to 1 μM. Each zirconia disc was incubated at room temperature for 15 hours, and then washed strongly with a washing buffer, and 200 μl of a 1:500 dilution of ExtrAvidin-peroxidase (Cat. #E2886, Sigma-Aldrich, USA) in a blocking buffer was dispensed to the surface of each zirconia disc. Each zirconia disc was incubated at room temperature for 1 hour, and then washed strongly with a washing buffer, after which 200 μl of a substrate solution (2,2′-AZINO-BIS, Cat. #A3219, Sigma-Aldrich, USA) was dispensed to the surface of each zirconia disc and allowed to react at room temperature for 20 minutes so as to develop color. Each zirconia disc was treated with 200 μl of 1% SDS solution to stop the reaction, and the absorbance at 405 nm was measured.

[2] = binding assay using an avidin-biotin complex (maximum binding amount per zirconia disc)
Source text: as §1
To examine the maximum binding amount of the zirconia-binding peptide Zr-BP (SEQ ID NO: 1) per unit area of the zirconia disc surface, a binding assay using a avidin-biotin complex was performed. Specifically, one zirconia disc was placed in each well of a 12-well polystyrene plate, and then blocked with a blocking buffer (0.1 M NaHCO3 (pH 8.6), 5 mg/ml BSA, 0.02% NaN3 (optional), filter sterilize) for at least one hour. […] Each zirconia disc was treated with 200 μl of 1% SDS solution to stop the reaction, and the absorbance at 405 nm was measured.

Row | absorbance value at 405 nm (binding to the zirconia disc surface) ([1]; FIG. 2) | maximum amount of zirconia-binding peptide bound to the surface of one zirconia disc ([2]; back-calculation from molecular weight and dispensing amount, disc diameter 15.5 mm) | concentration showing the maximum absorbance value ([2]; biotin-labeled peptide, 100 nM to 40 mM, 200 μl per disc, room temperature 15 hours, FIG. 3) | zirconia-binding peptide fixed per mm^2 of the zirconia disc surface ([2]; per mm^2, disc diameter 15.5 mm) | Sequence | absorbance value at 405 nm (binding to the zirconia disc surface) ([1]; FIG. 1)
1 | do not bind to the zirconia disc surface | – | – | – | LRLDVDRAISLL (PL2) | –
2 | do not bind to the zirconia disc surface | – | – | – | IGNSFSFPAVYR (PL1) | –
3 | – | – | – | – | VSAAGTKASPAV (Zr-BPC) | binding affinity thereof is reduced

Row | Sequence | absorbance value at 405 nm (binding to the zirconia disc surface) ([1]; FIG. 2) | maximum amount of zirconia-binding peptide bound to the surface of one zirconia disc ([2]; back-calculation from molecular weight and dispensing amount, disc diameter 15.5 mm) | concentration showing the maximum absorbance value ([2]; biotin-labeled peptide, 100 nM to 40 mM, 200 μl per disc, room temperature 15 hours, FIG. 3) | zirconia-binding peptide fixed per mm^2 of the zirconia disc surface ([2]; per mm^2, disc diameter 15.5 mm) | absorbance value at 405 nm (binding to the zirconia disc surface) ([1]; FIG. 1)
4 | VSPFGTKWSPFV (Zr-BP) | higher than those of the peptides (PL1 and PL2) of Comparative Example 2 | 622.8 µg | 2 mM | about 3.3 μg | higher than that of the peptide Zr-BPC of Comparative Example 1
